Measurements published in US20120172386A1, “Combinations Comprising a VEGF Receptor Inhibitor” (NOVARTIS AG, priority 2005, published 2012).

Key:
[1] = target: VEGF-R2 (KDR) (Homo sapiens, UniProt P35968); test: Inhibition of the tyrosine kinase activity of VEGF-R2 (KDR); assay type: biochemical
Procedure: Inhibition of the Tyrosine Kinase Activity of VEGF-R2 (KDR)
The inhibition test is carried out as described above.

[2] = Percutaneous penetration/permeation in static Franz-type diffusion cells with split-thickness human cadaver skin; assay type: in vitro ADME; details: batch of skin 4
[3] = as above; assay type: in vitro ADME; details: solution a (propylene glycol); batch of skin 4
Procedure: Frozen human dorsal cadaver skin (Caucasian; back skin) was obtained from the National Disease Research Interchange, Philadelphia, USA. Skin from three different donors was used;
Thawed skin samples were dermatomed to 0.7 mm with an Aesculap dermatome to obtain “split-thickness” skin.
Percutaneous penetration was studied in vitro by means of static Franz-type diffusion cells with phosphate buffered saline/fetal calf serum 2:1 as receptor fluid at 32° in triplicates for 48 hours. The compounds were applied as 1% solutions (300 μl each) in propylene glycol (solution a) or in propylene glycol/oleyl alcohol 9:1 (solution b). Samples of 100 μl were taken 5 to 7 times and replaced by fresh receptor fluid as described previously (Schmook, et al., Skin Pharmacol. 1993, 6:116-124).
Drug analysis was performed with specimens of the exposed skin (at the end of the 48 hours experiment), from which the stratum corneum had been removed by 20 strippings with an adhesive tape. The weighed skin samples were homogenized in 0.2 M ammonium phosphate buffer (pH 7.0). The homogenates were extracted with ethyl acetate and processed as described (Schmook, et al 1993).

[4] = solution c (propylene glycol containing 0.1% DMSO)
[5] = solution d (propylene glycol containing 1% DMSO)

Chain of VEGF-R2 (KDR) (P35968 20-1356, species assumed): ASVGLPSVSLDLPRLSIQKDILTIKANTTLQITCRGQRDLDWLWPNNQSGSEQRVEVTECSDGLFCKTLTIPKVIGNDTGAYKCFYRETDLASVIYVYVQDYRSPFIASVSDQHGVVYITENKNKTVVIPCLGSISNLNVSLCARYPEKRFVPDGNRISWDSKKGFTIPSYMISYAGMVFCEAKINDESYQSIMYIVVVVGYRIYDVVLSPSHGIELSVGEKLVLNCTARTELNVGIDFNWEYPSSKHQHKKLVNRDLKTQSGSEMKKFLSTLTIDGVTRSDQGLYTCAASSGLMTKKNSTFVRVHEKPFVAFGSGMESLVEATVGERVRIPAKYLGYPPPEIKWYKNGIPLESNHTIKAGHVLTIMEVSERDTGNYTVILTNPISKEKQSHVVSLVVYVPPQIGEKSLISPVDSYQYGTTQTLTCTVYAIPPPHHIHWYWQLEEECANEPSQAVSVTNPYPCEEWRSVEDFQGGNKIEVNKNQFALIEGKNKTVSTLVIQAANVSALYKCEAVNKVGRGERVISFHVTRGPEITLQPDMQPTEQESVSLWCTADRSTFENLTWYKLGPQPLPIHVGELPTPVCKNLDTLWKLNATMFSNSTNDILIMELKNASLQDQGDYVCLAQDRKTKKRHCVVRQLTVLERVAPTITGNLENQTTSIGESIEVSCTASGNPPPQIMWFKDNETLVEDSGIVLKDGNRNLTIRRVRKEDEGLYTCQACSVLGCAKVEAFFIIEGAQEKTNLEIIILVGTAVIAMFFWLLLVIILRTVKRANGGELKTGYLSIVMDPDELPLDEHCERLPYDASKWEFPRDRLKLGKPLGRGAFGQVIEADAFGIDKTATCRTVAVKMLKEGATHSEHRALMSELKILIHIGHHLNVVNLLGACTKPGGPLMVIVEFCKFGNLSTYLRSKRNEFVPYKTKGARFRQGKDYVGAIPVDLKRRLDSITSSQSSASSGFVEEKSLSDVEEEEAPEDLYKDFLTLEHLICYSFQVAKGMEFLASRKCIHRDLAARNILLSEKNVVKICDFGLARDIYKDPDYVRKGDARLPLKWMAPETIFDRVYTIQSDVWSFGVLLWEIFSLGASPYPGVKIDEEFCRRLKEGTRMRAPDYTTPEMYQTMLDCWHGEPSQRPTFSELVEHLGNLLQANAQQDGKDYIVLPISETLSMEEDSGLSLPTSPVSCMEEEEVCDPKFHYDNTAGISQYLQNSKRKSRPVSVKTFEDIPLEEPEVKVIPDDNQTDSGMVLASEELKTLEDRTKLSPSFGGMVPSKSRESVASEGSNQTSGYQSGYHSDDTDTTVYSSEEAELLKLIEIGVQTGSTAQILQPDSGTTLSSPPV

Structure (SMILES)	IC50 [1]	melting point	also measured
Cc1ccc(NC(=O)N2CCOc3cc(Oc4ccnc(N)n4)ccc32)cc1C(F)(F)F [12f), 7-(2-amino-pyrimidin-4-yloxy)-2,3-dihydro-benzo[1,4]oxazine-4-carboxylic acid (4-methyl-3-trifluoromethyl-phenyl)-amide]	17 nM	–	–
Nc1nccc(Oc2ccc3c(C(=O)Nc4ccc(C(F)(F)F)cc4)cccc3c2)n1 [17a)]	19 nM	–	–
CC(C)(C)c1ccc(NC(=O)c2cccc3cc(Oc4ccnc(N)n4)ccc23)cc1 [17b)]	54 nM	–	–
CNc1cc(Oc2ccc3c(c2)OCCN3C(=O)Nc2ccc(C)c(C(F)(F)F)c2)ncn1 [Example 8, 7-(6-Methylamino-pyrimidin-4-yloxy)-2,3-dihydro-benzo[1,4]oxazine-4-carboxylic acid (4-methyl-3-trifluoromethyl-phenyl)-amide]	46 nM	180 to 182 °C	–
CNc1cc(Oc2ccc3c(c2)OCCN3C(=O)Nc2cccc(C(F)(F)F)c2)ncn1 [Example 9, 7-(6-Methylamino-pyrimidin-4-yloxy)-2,3-dihydro-benzo[1,4]oxazine-4-carboxylic acid (3-trifluoromethyl-phenyl)-amide]	29 nM	180 °C	–
Nc1nccc(Oc2ccc3c(c2)OCCN3C(=O)Nc2cccc(C(F)(F)F)c2)n1 [Example 10, 7-(2-Amino-pyrimidin-4-yloxy)-2,3-dihydro-benzo[1,4]oxazine-4-carboxylic acid (3-trifluoromethyl-phenyl)-amide]	37 nM	161 to 163 °C	–
Nc1nccc(Oc2ccc3c(C(=O)Nc4cccc(C(F)(F)F)c4)cccc3c2)n1 [formula Ip]	–	–	Permeation rate [2, 4]: <2 ng/mL/h; Skin concentration [2, 4]: 4.4 ± 3.1 µg/g; Permeation rate [2, 5]: <2 ng/mL/h; Skin concentration [2, 5]: 4.7 ± 2.9 µg/g; Permeation rate [3]: <2 ng/mL/h; Skin concentration [3]: 6.2 ± 1.5 µg/g

Second part, led by results:

IC50 [1]	melting point	Structure (SMILES)	also measured
20 nM	–	Cc1ccc(NC(=O)c2cccc3cc(Oc4ccnc(N)n4)ccc23)cc1C(F)(F)F [Example 15, 6-(2-Amino-pyrimidin-4-yloxy)-naphthalene-1-carboxylic acid (4-methyl-3-trifluoromethyl-phenyl)-amide]	–
21 nM	216 to 217 °C	CC(=O)Nc1nccc(Oc2ccc3c(C(=O)Nc4cccc(C(F)(F)F)c4)cccc3c2)n1 [Example 18, 6-(2-Acetylamino-pyrimidin-4-yloxy)-naphthalene-1-carboxylic acid (3-trifluoromethyl-phenyl)-amide]	–
24 nM	–	CC(=O)Nc1nccc(Oc2ccc3c(c2)OCCN3C(=O)Nc2ccc(C)c(C(F)(F)F)c2)n1 [Example 20, 7-(2-Acetylamino-pyrimidin-4-yloxy)-2,3-dihydro-benzo[1,4]oxazine-4-carboxylic acid (4-methyl-3-trifluoromethyl-phenyl)-amide]	–
19 nM	–	COC(=O)Nc1nccc(Oc2ccc3c(c2)OCCN3C(=O)Nc2ccc(C)c(C(F)(F)F)c2)n1 [Example 21, 7-(2-Methoxycarbonylamino-pyrimidin-4-yloxy)-2,3-dihydro-benzo[1,4]oxazine-4-carboxylic acid (4-methyl-3-trifluoromethyl-phenyl)-amide]	–
96 nM	–	CN1CCN(Cc2ccc(NC(=O)N3CCOc4cc(Oc5ccnc(N)n5)ccc43)cc2C(F)(F)F)CC1 [Example 22, 7-(2-Amino-pyrimidin-4-yloxy)-2,3-dihydro-benzo[1,4]oxazine-4-carboxylic acid [4-(4-methyl-piperazin-1-ylmethyl)-3-trifluoromethyl-phenyl]-amide]	–
